Assays:
NQO1 = NQO1 (Homo sapiens, UniProt P15559); assay: In vitro NQO1 enzyme activity assay (cytochrome C reduction); assay type: biochemical; conditions: NQO1 2 ng
Procedure: In order to evaluate the enzymatic activities of compounds on NQO1, the experiments were performed as follows:
A compound to measure NQO1 enzyme activity was dissolved in DMSO to prepare a 10 mM stock solution, which was then diluted with DMSO to prepare a working solution at a concentration of 250 μM. For an enzyme reaction solution, 50 μL of 1.54 mM cytochrome C solution was added to 900 μL of 50 mM Tris-HCl (pH 7.5) solution containing 0.14% BSA, and then the prepared working solution at 250 μM was added. After adding 20 μL of 100 ng/ml NQO1 protein, […] solution was added so as to adjust the total volume to 1 mL, and then the change of absorbance was measured at 550 nm for 10 minutes. The change of absorbance was measured at 550 nm for 10 minutes using 1 mL cuvette. The reaction rate was observed through the increase in absorbance as cytochrome C was reduced at 550 nm for 10 minutes, to obtain an absorbance value, and the activity for NQO1 was measured as the reduced amount of cytochrome C (nmol reduced cytochrome C/min/μg NQO1 protein).
Absorption coefficient of Cytochrome C: 21.1 (μmol/mL)-1 cm^−1
Equipment=Cary 100 UV-Vis Spectrophotometer

[1] = test system: DSS-induced acute colitis mouse model; assay: Efficacy in ulcerative colitis mouse model (DSS-induced acute colitis); assay type: in vivo, C57BL/6 female mouse; conditions: 5% DSS for 6 days
Procedure: DSS-induced acute colitis mouse model was prepared using 6-week-old C57BL/6 female mouse in the following method from Opal S M et al., Jama., 309(11):1154-1162(2013) and Hotchkiss R S et al., Journal of immunology., 176(9):5471-5477(2006).
The clinical score in colitis were measured daily for body weight, rectal bleeding, total bleeding loss, and fecal concentration during colitis induction.
For immunohistochemistry of tissue section, mouse spleen, lung and colon were fixed using 10% formalin and embedded in paraffin. Paraffin sections were cut to a thickness of 4 μm, and H&E(hematoxylin and eosin) staining was performed. The histopathological score was measured in accordance with the criteria described in Osuchowski M F, et al., Journal of Immunology, 177(3):1967-74(2006); and Liu W, et al., Cell Research, 25(6): 691-706(2015).
The sandwich ELISAs and MPO assay were performed according to conventional methods in this field. TNF-α, IL-6, IL-1β, IL-18 ELISA(sandwich ELISAs) were performed using BD OptEIA ELISA Kit and MPO assay was performed using MPO Activity assay kit(ab105136) of Abcam company.
The data obtained from independent experiment (means±SD) was analyzed by using two-tailed Student's t-test. The differences were considered significant in p<0.05. For survival comparison, the results were graphically described and analyzed according to kaplan-Meier survival analysis, that is, the product-limit method, using log-rank(Mantel-Cox) tests (Prism, version 5.0, GraphPad Software).

[2] = test system: primary bone marrow-derived macrophages (BMDMs); assay: OCR (oxygen consumption rate) measurement, Seahorse XF24; assay type: cell-based, C57BL/6 mouse; conditions: macrophages after treatment of LPS and ATP
Procedure: The primary bone marrow-derived macrophages (BMDMs) isolated from C57BL/6 mouse were incubated in DMEM medium involving macrophage colony-stimulating factor (M-CSF; R&D Systems, 416-ML) during 3 to 5 days. OCR was measured using Seahorse XF24 Extracellular Flux Analyzer in isolated bone marrow-derived macrophages.

[3] = test system: primary bone marrow-derived macrophages (BMDMs); assay: NAD+/NADH measurement in macrophages after LPS/ATP; assay type: cell-based, C57BL/6 mouse; conditions: LPS/ATP + 1, 5, 10 μM compound
Procedure: (§1) The primary bone marrow-derived macrophages (BMDMs) isolated from C57BL/6 mouse were incubated in DMEM medium involving macrophage colony-stimulating factor (M-CSF; R&D Systems, 416-ML) during 3 to 5 days. NAD^+ production and NAD^+/NADH ratio was measured in isolated BMDMs through using NAD/NADH Assay Kit(ab65348) supplied by Abcam company. All assays were performed according to the manufacturer's product manual.
FIGS. 6 to 10 show NAD^+/NADH ratio changes in the macrophage when treated with compounds 6, 16, 17, and 27 respectively (in order from left in the figure: Untreatment, LPS/ATP, LPS/ATP+1 μM compound, LPS/ATP+5 μM compound, and LPS/ATP+10 μM).

[4] = test system: primary bone marrow-derived macrophages (BMDMs); assay: Mitochondrial reactive oxygen species measurement (MitoSox, FACS); assay type: cell-based, C57BL/6 mouse; conditions: LPS/ATP + 1, 5, 10 μM compound
Procedure: The primary bone marrow-derived macrophages (BMDMs) isolated from C57BL/6 mouse were incubated in DMEM medium involving macrophage colony-stimulating factor (M-CSF; R&D Systems, 416-ML) during 3 to 5 days. Isolated BMDMs were stained by 1 μM MitoSox (Molecular Probes M36008) for 15 min. After washing the cells into PBS and collecting the cells, mitochondrial reactive oxygen species was measured by FACS.
FIGS. 11 and 12 show mitochondrial reactive oxygen species changes in the macrophage when treated with compounds 6 and 27, respectively (in order from left in the figure: Untreatment, LPS/ATP, LPS/ATP+1 μM compound, LPS/ATP+5 μM compound, and LPS/ATP+10 μM compound).

[5] = test system: primary bone marrow-derived macrophages (BMDMs); assay: ATP measurement in LPS-activated macrophages; assay type: cell-based, C57BL/6 mouse; conditions: LPS + 1, 5, 10 μM compound
Procedure: The primary bone marrow-derived macrophages (BMDMs) isolated from C57BL/6 mouse were incubated in DMEM medium involving macrophage colony-stimulating factor (M-CSF; R&D Systems, 416-ML) during 3 to 5 days. ATP content in the cell was measured through using ATP colorimetric/fluorometric kit after activation of macrophages by treatment of 100 ng/mL LPS in DMEM medium including […]. All assays were performed according to the manufacturer's product manual.
FIGS. 13 to 17 show the measurement of ATP amounts in the macrophage when treated with Compounds 6, 16, 17, 22 and 27 respectively (in order from left in the figure: Untreatment, LPS/ATP, LPS/ATP+1 μM compound, LPS/ATP+5 μM compound, and LPS/ATP+10 μM compound).

[6] = test system: primary bone marrow-derived macrophages (BMDMs); assay: NAD+ measurement in macrophages after LPS/ATP; assay type: cell-based, C57BL/6 mouse; conditions: LPS/ATP + 1, 5, 10 μM compound
Procedure: as §1, with “were” for “was”
FIGS. 1 to 5 show NAD^+ changes in the macrophage when treated with compounds 6, 16, 17, 22 and 27 respectively (in order from left in the figure: Untreatment, LPS/ATP, LPS/ATP+1 μM compound, LPS/ATP+5 μM compound, and LPS/ATP+10 μM compound).

[7] = colon tissue homogenate, treated during 20 days
[8] = treated during 10 days, vs non-treated mouse

Sequence of NQO1 (P15559 whole entry, species assumed): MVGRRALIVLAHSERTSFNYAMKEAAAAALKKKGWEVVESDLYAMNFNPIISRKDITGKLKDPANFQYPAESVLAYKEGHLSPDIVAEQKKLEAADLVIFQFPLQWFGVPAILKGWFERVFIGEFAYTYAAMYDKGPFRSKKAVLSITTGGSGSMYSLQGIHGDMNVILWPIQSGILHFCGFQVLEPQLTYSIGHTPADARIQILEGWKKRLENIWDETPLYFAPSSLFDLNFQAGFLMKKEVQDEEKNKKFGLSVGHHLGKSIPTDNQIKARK

`O=C1C(=O)c2c(n(-c3ccccc3)[nH]c2=O)-c2ccccc21` [Compound 1] was tested, and the “NQO1 Activity” value (NQO1; Compound 5 μM) was 180 nmol of reduced Cytochrome C/min/μg NQO1 Protein.

In the case of `CC(C)Oc1nn(-c2ccccc2)c2c1C(=O)C(=O)c1ccccc1-2` [Compound 2], the “NQO1 Activity” value (NQO1; Compound 0.2 μM) is reported as 3531 nmol of reduced Cytochrome C/min/μg NQO1 Protein.

With `CC(C)n1c(=O)c2c(n1C)-c1ccccc1C(=O)C2=O` [Compound 3] the “NQO1 Activity” value (NQO1; Compound 5 μM) was 3066 nmol of reduced Cytochrome C/min/μg NQO1 Protein.

`Cn1c(=O)c2c(n1-c1ccccc1)-c1ccccc1C(=O)C2=O` [Compound 5] was tested, and the “NQO1 Activity” value (NQO1; Compound 5 μM) was 2602 nmol of reduced Cytochrome C/min/μg NQO1 Protein.

`COc1nn(-c2ccccc2)c2c1C(=O)C(=O)c1ccccc1-2` [Compound 6] was tested, and the MPO activity [1, 7] was “decreased”, the “cytokine expressions (TNF-α, IL-6, IL-1β and IL-18, ELISA)” value [1, 7] was “decreased” and the “expressions of sirtuin 1 and sirtuin 7” value [1, 7] was “significantly increased”. For the same compound, the “histological finding of colon tissue (immunohistochemistry, histological score, H&E)” value ([1]; treated during 7 days, vs non-treated colon tissue) was “significantly improved than non-treated colon tissue”, the “colitis clinic scores (body weight, stool consistency, bleeding combined)” value [1, 8] was “significantly ameliorated compared with non-treated mouse” and the “degree of body weight loss” value [1, 8] was “significantly slower than non-treated mouse”. The survival rates ([1]; treated during 20 days, vs non-treated mouse) was “higher than non-treated mouse”, the “overall mitochondrial OCR” value [2] was “increased” and the “NAD+/NADH ratio” value [3] was “increased in dose-dependent manner”. For the same compound, the “mitochondrial reactive oxygen species amounts” value [4] was “decreased in dose-dependent manner”, the “NQO1 Activity” value (NQO1; Compound 0.2 μM) was 3782 nmol of reduced Cytochrome C/min/μg NQO1 Protein and the “NQO1 Activity” value (NQO1; Compound 5 μM) was 7706 nmol of reduced Cytochrome C/min/μg NQO1 Protein. The ATP amounts [5] was “increased in dose-dependent manner” and the “NAD+ production” value [6] was “increased in dose-dependent manner”.

`CCn1c(=O)c2c(n1-c1ccccc1)-c1ccccc1C(=O)C2=O` [Compound 7] was tested, and the “NQO1 Activity” value (NQO1; Compound 0.2 μM) was 2246 nmol of reduced Cytochrome C/min/μg NQO1 Protein.

`CCOc1nn(-c2ccccc2)c2c1C(=O)C(=O)c1ccccc1-2` [Compound 8] was tested, and the “NQO1 Activity” value (NQO1; Compound 0.2 μM) was 3768 nmol of reduced Cytochrome C/min/μg NQO1 Protein.

`CC(C)Cn1c(=O)c2c(n1-c1ccccc1)-c1ccccc1C(=O)C2=O` [Compound 9] was tested, and the “NQO1 Activity” value (NQO1; Compound 0.2 μM) was 2474 nmol of reduced Cytochrome C/min/μg NQO1 Protein.

For `CC(C)COc1nn(-c2ccccc2)c2c1C(=O)C(=O)c1ccccc1-2` [Compound 10], the “NQO1 Activity” value (NQO1; Compound 0.2 μM) was 3455 nmol of reduced Cytochrome C/min/μg NQO1 Protein.

For `CC(C)CCn1c(=O)c2c(n1-c1ccccc1)-c1ccccc1C(=O)C2=O` [Compound 11], the “NQO1 Activity” value (NQO1; Compound 0.2 μM) was 2839 nmol of reduced Cytochrome C/min/μg NQO1 Protein.

In the case of `CC(C)CCOc1nn(-c2ccccc2)c2c1C(=O)C(=O)c1ccccc1-2` [Compound 12], the “NQO1 Activity” value (NQO1; Compound 0.2 μM) is reported as 2981 nmol of reduced Cytochrome C/min/μg NQO1 Protein.

`CC(C)n1c(=O)c2c(n1-c1ccccc1)-c1ccccc1C(=O)C2=O` [Compound 13] was tested, and the “NQO1 Activity” value (NQO1; Compound 0.2 μM) was 2137 nmol of reduced Cytochrome C/min/μg NQO1 Protein.

For `CC(C)n1c2c(c(=O)n1C)C(=O)C(=O)c1ccccc1-2` [Compound 16], the “NAD+/NADH ratio” value [3] was “increased in dose-dependent manner”, the “NQO1 Activity” value (NQO1; Compound 0.2 μM) was 4441 nmol of reduced Cytochrome C/min/μg NQO1 Protein and the “NAD+ production” value [6] was “increased in dose-dependent manner”.

In the case of `COc1nn(C(C)C)c2c1C(=O)C(=O)c1ccccc1-2` [Compound 17], the “NAD+/NADH ratio” value [3] is reported as “increased in dose-dependent manner”, the “NQO1 Activity” value (NQO1; Compound 0.2 μM) is reported as 5843 nmol of reduced Cytochrome C/min/μg NQO1 Protein and the “NAD+ production” value [6] is reported as “increased in dose-dependent manner”.

`COc1nn(-c2ccc(C(F)(F)F)cc2)c2c1C(=O)C(=O)c1ccccc1-2` [Compound 18] was tested, and the “NQO1 Activity” value (NQO1; Compound 0.2 μM) was 4232 nmol of reduced Cytochrome C/min/μg NQO1 Protein.

`COc1nn(-c2ccc(F)cc2)c2c1C(=O)C(=O)c1ccccc1-2` [Compound 19] was tested, and the “NQO1 Activity” value (NQO1; Compound 0.2 μM) was 4303 nmol of reduced Cytochrome C/min/μg NQO1 Protein.

For `Cn1c2c(c(=O)n1-c1ccccc1)C(=O)C(=O)c1ccccc1-2` [Compound 20], the “NQO1 Activity” value (NQO1; Compound 0.2 μM) was 568 nmol of reduced Cytochrome C/min/μg NQO1 Protein.

With `Cn1c(=O)c2c(n1-c1ccccc1)-c1ccc(F)cc1C(=O)C2=O` [Compound 21] the “NQO1 Activity” value (NQO1; Compound 0.2 μM) was 1426 nmol of reduced Cytochrome C/min/μg NQO1 Protein.

With `COc1nn(-c2ccccc2)c2c1C(=O)C(=O)c1cc(F)ccc1-2` [Compound 22] the “NAD+/NADH ratio” value [3] was “increased in dose-dependent manner”, the “NQO1 Activity” value (NQO1; Compound 0.2 μM) was 6978 nmol of reduced Cytochrome C/min/μg NQO1 Protein and the “NAD+ production” value [6] was “increased in dose-dependent manner”.

With `COc1cn(-c2ccccc2)c2c1C(=O)C(=O)c1cc([N+](=O)[O-])ccc1-2` [Compound 23] the “NQO1 Activity” value (NQO1; Compound 0.2 μM) was 456 nmol of reduced Cytochrome C/min/μg NQO1 Protein.

`COc1nn(-c2ccccc2)c2c1C(=O)C(=O)c1cc(N)ccc1-2` [Compound 24] was tested, and the “NQO1 Activity” value (NQO1; Compound 0.2 μM) was 4336 nmol of reduced Cytochrome C/min/μg NQO1 Protein.

With `COc1cn(-c2ccccc2)c2c1C(=O)C(=O)c1cc(Br)ccc1-2` [Compound 25] the “NQO1 Activity” value (NQO1; Compound 0.2 μM) was 1676 nmol of reduced Cytochrome C/min/μg NQO1 Protein.

— patent US20220354825A1, “PHARMACEUTICAL COMPOSITION FOR PREVENTION OR TREATMENT OF INFLAMMATORY DISEASES COMPRISING NAPHTHOQUINONE DERIVATIVE” (LMITO THERAPEUTICS INC., priority 2019, published 2022)
